Measured values published in PMC5889867, “Inhibition of Protein Aggregation by Several Antioxidants” (Oxidative Medicine and Cellular Longevity, 2018).
Values joined by “and” are separate entries in the source; they are usually repeats but may differ in a detail not shown here. Equal entries are not always repeated. Blank lines part the entries; values can stand above or below the compound they belong to.

Legend:
[1] = target: T1, human stefin B (stB wt) (Homo sapiens, UniProt P04080, C3S); assay: intrinsic Tyr fluorescence quenching, modified Stern-Volmer; type: binding; conditions: 34 uM protein, 25 C, excitation 277 nm
T1 construct: gene CSTB; Cys3 replaced by Ser
T1 sequence (P04080 1-98 C3S): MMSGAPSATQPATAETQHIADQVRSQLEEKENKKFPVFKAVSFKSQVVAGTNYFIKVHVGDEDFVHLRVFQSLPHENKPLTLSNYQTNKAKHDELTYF

[2] = target: human stefin B (stB wt), recombinant, Cys 3 replaced with Ser (human) (UniProt P04080); assay: cross-linking; stB wt fibrillation mixture (34 uM protein, 0.015 M acetate buffer, 0.15 M NaCl, pH 4.8, 10% v/v TFE, room temperature) aged 24 hours, with or without antioxidants (NAC, vit C and others); cross-linked with 50-fold molar excess of BS3, then SDS-PAGE

Compound: CC(=O)N[C@@H](CS)C(=O)O [NAC, (2R)-2-acetamido-3-sulfanyl propanoic acid]
Ka [1]: each compound also acts as a quencher of tyrosine fluorescence

Compound: COc1cc(/C=C/C(=O)CC(=O)/C=C/c2ccc(O)c(OC)c2)ccc1O [curcumin, (1E,6E)-1,7-bis(4-hydroxy-3-methoxyphenyl)hepta-1,6-diene-3,5-dione]
Ka [1]: binding constants show that curcumin binds more tightly than do other antioxidants studied here

Compound: O=c1c(O)c(-c2ccc(O)c(O)c2)oc2cc(O)cc(O)c12 [quercetin, 2-(3,4-dihydroxyphenyl)-3,5,7-trihydroxy-4H-chromen-4-one]
Ka [1]: each compound also acts as a quencher of tyrosine fluorescence

Compound: Oc1ccc(/C=C/c2cc(O)cc(O)c2)cc1 [resveratrol, 3,5,40-trihydroxystilbene]
Ka [1]: each compound also acts as a quencher of tyrosine fluorescence

Compound: O=C1O[C@H]([C@@H](O)CO)C(O)=C1O [vitamin C, (2R)-2-[(1S)-1,2-dihydroxyethyl]-3,4-dihydroxy-2H-furan-5-one]
Ka [1]: each compound also acts as a quencher of tyrosine fluorescence

stoichiometry N [2]: 2 and > 4
Compound: human stefin B (stB wt), recombinant, Cys 3 replaced with Ser (from UniProt P04080 8-98) (natural protein)
